21 molecules from US20240067617A1 (Albireo AB, priority 2022, published 2024) can be followed below.

In one assay the target is T1, hIBAT (Homo sapiens, UniProt Q12908).
T1 construct: expressed in transfected cells; kept under Puromycin selection
T1 sequence (Q12908 1-348): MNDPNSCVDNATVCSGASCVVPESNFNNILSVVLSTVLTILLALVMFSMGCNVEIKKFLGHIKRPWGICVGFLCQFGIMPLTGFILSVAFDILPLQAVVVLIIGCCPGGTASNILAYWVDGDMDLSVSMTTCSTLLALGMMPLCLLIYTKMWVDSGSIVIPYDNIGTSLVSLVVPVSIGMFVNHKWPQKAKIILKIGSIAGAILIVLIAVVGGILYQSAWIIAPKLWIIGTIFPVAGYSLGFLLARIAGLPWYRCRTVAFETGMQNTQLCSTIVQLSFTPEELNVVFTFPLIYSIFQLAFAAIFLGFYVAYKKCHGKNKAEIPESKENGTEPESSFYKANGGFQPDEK
The assay can be described thus: IBAT (h/m) assay: 3H-taurocholic acid uptake in human IBAT-overexpressing cells. Type of assay: cell-based. The conditions noted are these: 0.25 μM 3H-taurocholic acid + 5 μM cold taurocholic acid, 20 minutes at 37° C., highest test concentration 10 μM. On the procedure:
IBAT (h/m) Assay Protocol
10,000 cells (Human or Mouse IBAT-overexpressing cells) were seeded in 96-wells plate (Corning CLS3809) in 200 μL MEM-alpha medium (Gibco 12571-063) supplemented with 10% FBS (Gibco 10438026) containing Puromycin (Gibco A1113803) (10 μg/mL) and incubated at 37° C. in 5% CO2 for 48 hours. After incubation, media was decanted from the wells and cells were washed two times with 300 μL of basal MEM-alpha medium (FBS-free). After decanting basal MEM-alpha medium each time, plates were tapped against paper towel to ensure maximum removal of residual media. Test inhibitor dilutions (highest test concentration being 10 μM, 3-fold serial dilution, 10 points) prepared in DMSO (Sigma D2650) were added in incubation mix (maintaining 0.2% final DMSO concentration) containing 0.25 μM 3H-taurocholic acid (ARC ART-1368) and 5 μM of cold taurocholic acid (Sigma T4009). 50 μL of incubation mix containing test inhibitors was then added to the wells (in duplicate) and the plates were incubated for 20 minutes in a CO2 incubator at 37° C. After incubation, the reaction was stopped by keeping the plates on ice water mix for 2-3 minutes and then the incubation mix was aspirated completely from the wells. The wells were washed two times with 250 μL of chilled unlabelled 1 mM taurocholic acid dissolved in HEPES (Gibco 15630080)-buffered (10 mM) HBSS (Gibco 14175079) (pH 7.4). The plates were tapped against a paper towel after every wash to ensure maximum removal of blocking buffer.
100 μL of MicroScint-20 (PerkinElmer 6013621) was added to the wells and kept overnight at RT before reading the plates in TopCount NXT™ Microplate Scintillation and Luminescence Counter from PerkinElmer under 3H Test protocol (set at 120 seconds reading time per well).
(§1) Preparation of Test Compound Dilutions
(§2) All test compounds were provided in powder form at RT. 10 mM DMSO stocks of the test compounds were prepared, aliquoted and stored at −20° C. From the 10 mM DMSO stock of the compounds, a 3-fold serial dilution in DMSO was prepared to get a total of 10 dilutions of the test compounds. 0.5 μL of this dilution in DMSO was added to 250 μL of FBS-free basal media containing 3H-taurocholic acid and cold taurocholic acid to prepare the incubation mixture.

The target in a further assay is T2, hLBAT (Homo sapiens, UniProt Q14973).
T2 construct: expressed in transfected cells; kept under Geneticin selection
T2 sequence (Q14973 1-349): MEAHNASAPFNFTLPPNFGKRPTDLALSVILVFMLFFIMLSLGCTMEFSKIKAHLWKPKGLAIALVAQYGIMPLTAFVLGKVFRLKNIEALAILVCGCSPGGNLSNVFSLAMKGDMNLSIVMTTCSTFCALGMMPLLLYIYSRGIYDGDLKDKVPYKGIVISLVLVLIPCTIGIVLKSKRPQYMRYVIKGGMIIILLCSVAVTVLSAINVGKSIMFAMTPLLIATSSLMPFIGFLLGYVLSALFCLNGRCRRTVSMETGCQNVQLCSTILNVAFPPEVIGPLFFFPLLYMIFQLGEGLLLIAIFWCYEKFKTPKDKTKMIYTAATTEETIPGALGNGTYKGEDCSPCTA
The assay can be described thus: LBAT (h/m) assay: 3H-taurocholic acid uptake in human LBAT-overexpressing cells. It is filed as cell-based. The conditions noted are these: 0.3 μM 3H-taurocholic acid + 7.5 μM cold taurocholic acid, 20 minutes at 37° C. As to the method:
LBAT (h/m) Assay Protocol
20,000 cells (Human or Mouse LBAT-overexpressing cells) were seeded in 96-wells plate (Corning CLS3809) in 100 μL MEM-alpha medium (Gibco 12571-063) supplemented with 10% FBS (Gibco 10438026) containing Geneticin (Gibco 10131-027) (1 mg/mL) and incubated at 37° C. in 5% CO2 for 24 hours. After incubation, media was decanted from the wells and cells were washed two times with 300 μL of basal MEM-alpha medium (FBS-free). After decanting basal MEM-alpha medium each time, plates were tapped against paper towel to ensure maximum removal of residual media. For human LBAT, incubation mix was prepared by adding test inhibitor dilutions (3-fold serial dilution in DMSO (Sigma D2650), 10 points) in MEM-alpha (without FBS) containing 0.3 μM 3H-taurocholic acid (ARC ART-1368) and 7.5 μM cold taurocholic acid (Sigma T4009) (maintaining 0.2% final DMSO concentration). For mouse LBAT, incubation mix was prepared by adding test inhibitor dilutions (3-fold serial dilution in DMSO, 10 points) in MEM-alpha (without FBS) containing 0.3 μM 3H-taurocholic acid and 25 μM cold taurocholic acid maintaining 0.2% final DMSO concentration). 50 μL of incubation mix containing test inhibitors was then added to the wells (in duplicate) and the plates were incubated for 20 minutes in a CO2 incubator at 37° C. After incubation, the reaction was stopped by keeping the plates on ice water mix for 2-3 minutes and then the incubation mix was aspirated completely from the wells. The wells were washed two times with 250 μL of chilled unlabelled 1 mM taurocholic acid dissolved in HEPES (Gibco 15630080)-buffered (10 mM) HBSS (Gibco 14175079) (pH 7.4). The plates were tapped against a paper towel after every wash to ensure maximum removal of blocking buffer.
100 μL of MicroScint-20 (PerkinElmer 6013621) was added to the wells and kept overnight at RT before reading the plates in TopCount NXT™ Microplate Scintillation and Luminescence Counter from PerkinElmer under 3H Test protocol (set at 120 seconds reading time per well, with normal plate orientation).
as §1, §2

The term IC50 denotes the concentration needed to halve the response being measured. In the case of `CCCCC1CN(c2ccc(F)cc2)c2cc(OC)c(CSCC(=O)O)cc2S(=O)(=O)N1C` (single isomer, unassigned) [30, enantiomer 2], the IC50 at hIBAT stood at 349 nM; on hLBAT, 200 nM.

Take `CCCCC1(CC)CN(c2ccc(F)cc2)c2cc(OC)c(CSC(C)(C)C(=O)O)cc2S(=O)(=O)C1` (single isomer, unassigned) [34, enantiomer 1]: the IC50 is 161 nM at hIBAT and 110 nM at hLBAT.

With `CCCCC1(CC)CN(c2ccc(F)cc2)c2cc(OC)c(CSC(C)(C)C(=O)O)cc2S(=O)(=O)C1` (single isomer, unassigned) [34, enantiomer 2], the figures for the IC50 at hIBAT and on hLBAT were 1960 nM and 155 nM, respectively.

`CCCCC1CN(c2ccccc2)c2cc(OC)c(CSCC(=O)O)cc2S(=O)(=O)N1C` (single isomer, unassigned) [36, enantiomer 1]: the IC50 on hIBAT and on hLBAT was above 10000 nM throughout.

In the case of `CCCCC1CN(c2ccccc2)c2cc(OC)c(CSCC(=O)O)cc2S(=O)(=O)N1C` (single isomer, unassigned) [36, enantiomer 2], the IC50 on hIBAT was 2750 nM; on hLBAT, 155 nM.

With `CCCCC1CN(c2ccccc2)c2cc(OC)c(CSC(C)(C)C(=O)O)cc2S(=O)(=O)N1C` (single isomer, unassigned) [38, enantiomer 1], the IC50 on hIBAT is above 10000 nM; at hLBAT, 1130 nM.

Consider `CCCCC1CN(c2ccccc2)c2cc(OC)c(CSC(C)(C)C(=O)O)cc2S(=O)(=O)N1C` (single isomer, unassigned) [38, enantiomer 2], for which the IC50 on hIBAT came to 1600 nM; on hLBAT, 6.6 nM.

In the case of `CCCCC1(CC)CN(c2ccc(F)cc2)c2cc(OC)c(CSCC(=O)O)cc2S(=O)(=O)C1` (single isomer, unassigned) [40, enantiomer 1], the IC50 at hIBAT is 1.4 nM; at hLBAT it was above 10000 nM.

Regarding `CCCCC1(CC)CN(c2ccc(F)cc2)c2cc(OC)c(CSCC(=O)O)cc2S(=O)(=O)C1` (single isomer, unassigned) [40, enantiomer 2], the IC50 on hIBAT was 36 nM; at hLBAT, above 10000 nM.

As to `CCCCC1(C)CN(c2ccccc2)c2cc(OC)c(CSC(C)(C)C(=O)O)cc2S(=O)(=O)C1` (single isomer, unassigned) [42, enantiomer 1], the IC50 was determined as 704 nM on hIBAT and 223 nM on hLBAT.

With `CCCCC1(C)CN(c2ccccc2)c2cc(OC)c(CSC(C)(C)C(=O)O)cc2S(=O)(=O)C1` (single isomer, unassigned) [42, enantiomer 2], the IC50 at hIBAT was above 10000 nM; at hLBAT it was 241 nM.

`CCCCC1(CC)CN(c2ccccc2)c2cc(OC)c(CSCC(=O)O)cc2S(=O)(=O)N1` (single isomer, unassigned) [45, enantiomer 1]: the IC50 is 28 nM at hIBAT and above 1000 nM on hLBAT.

Turning to `CCCCC1(CC)CN(c2ccccc2)c2cc(S(C)(=O)=O)c(CSCC(=O)O)cc2S(=O)(=O)N1` (single isomer, unassigned) [48, enantiomer 1], the IC50 at hIBAT was 231 nM; at hLBAT, above 1000 nM.

Turning to `CCCCC1(CC)CN(c2ccccc2)c2cc(S(C)(=O)=O)c(CSCC(=O)O)cc2S(=O)(=O)N1` (single isomer, unassigned) [48, enantiomer 2], the IC50 at hIBAT is 5.8 nM; on hLBAT it was above 1000 nM.

Take `CCCCC1(CCCC)CN(c2ccccc2)c2cc(SC)c(CSCC(=O)O)cc2S(=O)(=O)C1` [Example 3, 2-(((3,3-dibutyl-7-(methylthio)-1,1-dioxido-5-phenyl-2,3,4,5-tetrahydro-1,5-benzothiazepin-8-yl)methyl)thio)acetic acid]: the IC50 on hIBAT came out at 1.7 nM; on hLBAT, 3370 nM.

Consider `CCCCC1(CCCC)CN(c2ccccc2)c2cc(SC)c(CSCC(=O)O)cc2S(=O)(=O)N1` [Example 8, 2-(((3,3-dibutyl-7-(methylthio)-1,1-dioxido-5-phenyl-2,3,4,5-tetrahydro-1,2,5-benzothiadiazepin-8-yl)methyl)thio)acetic acid], for which the figures for the IC50 on hIBAT and on hLBAT were 0.8 nM and above 3330 nM, respectively.

`CCCCC1(CCCC)CN(c2ccccc2)c2cc(SC)c(CSC(C)(C)C(=O)O)cc2S(=O)(=O)C1` [Example 17, 2-(((3,3-Dibutyl-7-(methylthio)-1,1-dioxido-5-phenyl-2,3,4,5-tetrahydro-1,5-benzothiazepin-8-yl)methyl)thio)-2-methylpropanoic acid]: the figures for the IC50 at hIBAT and at hLBAT were 88 nM and 216 nM, respectively.

Take `CCCCC1(CC)CN(c2ccccc2)c2cc(SC)c(CSCC(=O)O)cc2S(=O)(=O)N1C` (stereo not drawn) [Example 20, 2-(((3-Butyl-3-ethyl-2-methyl-7-(methylthio)-1,1-dioxido-5-phenyl-2,3,4,5-tetrahydro-1,2,5-benzothiadiazepin-8-yl)methyl)thio)acetic acid]: the IC50 was 522 nM on hIBAT and 2510 nM on hLBAT.

`CCCCC1(CCCC)CN(c2ccccc2)c2cc(SC)c(CSCC(=O)O)cc2S(=O)(=O)N1C` [Example 22, 2-(((3,3-dibutyl-2-methyl-7-(methylthio)-1,1-dioxido-5-phenyl-2,3,4,5-tetrahydro-1,2,5-benzothiadiazepin-8-yl)methyl)thio)acetic acid]: the IC50 was 900 nM on hIBAT and above 3330 nM at hLBAT.

Regarding `CCCCC1(CCCC)CN(c2ccccc2)c2cc(SC)c(CSC(C)(C)C(=O)O)cc2S(=O)(=O)N1C` [Example 23, 2-(((3,3-dibutyl-2-methyl-7-(methylthio)-1,1-dioxido-5-phenyl-2,3,4,5-tetrahydro-1,2,5-benzothiadiazepin-8-yl)methyl)thio)-2-methylpropanoic acid], the IC50 is above 3330 nM at hIBAT and 145 nM at hLBAT.

With `CCCCC1(CC)CN(c2ccccc2)c2cc(SC)c(CSC(C)(C)C(=O)O)cc2S(=O)(=O)N1C` (stereo not drawn) [Example 24], the IC50 was above 3330 nM on hIBAT and 85 nM at hLBAT.
